Consider six molecules from patent US20200060276A1, “THIAZOLE COMPOUND AND HERBICIDE” (OAT Agrio Co., Ltd., priority 2017, published 2020).

Holding throughout (assay type): in vivo
Assay [1] has as its system Echinochloa crus-galli (L.) P. Beauv. var. formosensis Ohwi. Briefly: Test for Herbicidal Effect in Flooding Treatment (#2), ECHDG at 2-2.5 leaf stage. The note with it: for ECHDG (2-2.5L) #2 herbicidal effect (growth inhibition grade): flooding treatment at 2-2.5 leaf stage, dose 0.2 kg/ha, visual observation on day 21; for inhibition at 200 g/ha: Echinochloa crus-galli, 504 h, flooding treatment (#2), ECHDG at 2-2.5 leaf stage, dose of 0.2 kg/ha, day 21, visual observation, read-out: growth inhibition effect. The method in brief: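 Scoring is a visual 0–5 scale of growth inhibition (0 below 10%, 5 at 90% or more or full withering), taken 21 days after treatment in a glasshouse. Dose was 0.2 kg/ha, applied as acetone/Tween 80 aqueous solution onto flooded soil once seedlings reached the 2–2.5 leaf stage.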

In another assay the test system is Scirpus juncoides. Briefly: Test for Herbicidal Effect in Flooding Treatment (#1), SCIJU. The note with it: flooding treatment at seeding, dose 2 kg/ha, visual observation on day 21. The method in brief: (§1)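 Visual scores from 0 (<10% inhibition) to 5 (≥90% or complete withering) were taken 21 days after treatment of glasshouse-grown plants. Seeds were sown in soil flooded for 24 h beforehand, and compound was applied dropwise onto the surface at 2 kg/ha as an acetone solution diluted in water with Tween 80.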

In assay [2] the test system is Echinochloa crus-galli (L.) P. Beauv. var. formosensis Ohwi. Briefly: Test for Herbicidal Effect in Flooding Treatment (#1), ECHDG. The note with it: flooding treatment at seeding, dose 2 kg/ha, visual observation on day 21. In a few lines:
as §1

Another assay concerns Digitaria ciliaris. The experiment in a line: Test for Herbicidal Effect in Soil Treatment (#3). The settings on record: 504 h, dose of 2 kg/ha, day 21, visual observation, read-out: growth inhibition effect. From the text:
0: Growth inhibition effect is less than 10%. 1: Growth inhibition effect is equal to or greater than 10%, and less than 30%. 2; Growth inhibition effect is equal to or greater than 30%, and less than 50%. 3: Growth inhibition effect equal to or greater than 50%, and less than 70%. 4: Growth inhibition effect is equal to or greater than 70%, and less than 90%. 5: Growth inhibition effect is equal to or greater than 90%, or complete withering is achieved. (#3) Test for Herbicidal Effect in Soil Treatment: Styrol cups each having an opening diameter of 8 cm (about 52 cm^2) were respectively filled with soil (45 ml) which had been passed through a sieve (2 mm). Water (about 115 ml) was added. Thereafter, Digitaria ciliaris was seeded. Each of the compounds of the present invention was dissolved in acetone, and the obtained product was then diluted with water containing Tween 80°. Each of the resultant chemical solutions was dropped on the entire surface of an associated one of treatment sections, so that each section was treated with 1 ml of the respective chemical solution (a dose of 2 kg/ha). After the treatment, the plants were grown in a glasshouse. On day 21, a survey was conducted on the herbicidal activity by visual observation, and evaluation was made according to the following criteria. The herbicidal activity of the following comparative compounds A and B (the compounds disclosed Japanese Unexamined Patent Publication No. 2003-096059) were evaluated.

A further assay deals with Cyperus microiria. The experiment in a line: Test for Herbicidal Effect in Flooding Treatment (#1), CYMIC. The note with it: flooding treatment at seeding, dose 2 kg/ha, visual observation on day 21. The method in brief:
as §1

In the next assay the test system is Monochoria vaginalis. Briefly: Test for Herbicidal Effect in Flooding Treatment (#1), MONVA. The settings on record: flooding treatment at seeding, dose 2 kg/ha, visual observation on day 21. The method in brief:
as §1

What is called inhibition is the percentage by which the read-out fell short of the control. Take `CCOc1c(F)cccc1CS(=O)(=O)c1ncc(Cl)s1` [Compound 1C-9]: the “ECHDG (2-2.5L) #2 herbicidal effect (growth inhibition grade)” value in assay [1] is 5 (Growth inhibition effect is equal to or greater than 90%, or complete withering is achieved). The “SCIJU #1 herbicidal effect (growth inhibition grade)” value in the assay with Scirpus juncoides is given as 5 (Growth inhibition effect is equal to or greater than 90%, or complete withering is achieved). Also, in assay [2], the “ECHDG #1 herbicidal effect (growth inhibition grade)” value is 5 (Growth inhibition effect is equal to or greater than 90%, or complete withering is achieved). In addition, in the assay with Digitaria ciliaris, the inhibition at 2000 g/ha was at least 50%. For the same molecule, the “CYMIC #1 herbicidal effect (growth inhibition grade)” value with Cyperus microiria is 5 (Growth inhibition effect is equal to or greater than 90%, or complete withering is achieved).
For `CCOc1ccc(F)cc1CS(=O)(=O)c1ncc(Cl)s1` [Compound 1C-15], the “ECHDG (2-2.5L) #2 herbicidal effect (growth inhibition grade)” value in assay [1] is listed as 5 (Growth inhibition effect is equal to or greater than 90%, or complete withering is achieved). Further, the “SCIJU #1 herbicidal effect (growth inhibition grade)” value with Scirpus juncoides is recorded as 5 (Growth inhibition effect is equal to or greater than 90%, or complete withering is achieved). Further, the “ECHDG #1 herbicidal effect (growth inhibition grade)” value in assay [2] is on record as 5 (Growth inhibition effect is equal to or greater than 90%, or complete withering is achieved). The inhibition at 2000 g/ha in the assay with Digitaria ciliaris was at least 50%. In the assay on Cyperus microiria, the “CYMIC #1 herbicidal effect (growth inhibition grade)” value is 5 (Growth inhibition effect is equal to or greater than 90%, or complete withering is achieved).
Turning to `CCOc1cc(F)c(F)cc1CS(=O)(=O)c1ncc(Cl)s1` [Compound 1C-29], the “MONVA #1 herbicidal effect (growth inhibition grade)” value in the assay on Monochoria vaginalis was 5 (Growth inhibition effect is equal to or greater than 90%, or complete withering is achieved). In addition, the “ECHDG (2-2.5L) #2 herbicidal effect (growth inhibition grade)” value in assay [1] is on record as 5 (Growth inhibition effect is equal to or greater than 90%, or complete withering is achieved). In the assay on Scirpus juncoides, the “SCIJU #1 herbicidal effect (growth inhibition grade)” value was 5 (Growth inhibition effect is equal to or greater than 90%, or complete withering is achieved). The “ECHDG #1 herbicidal effect (growth inhibition grade)” value in assay [2] is on record as 5 (Growth inhibition effect is equal to or greater than 90%, or complete withering is achieved). The inhibition at 2000 g/ha in the assay on Digitaria ciliaris is at least 50%. For the same molecule, in the assay with Cyperus microiria, the “CYMIC #1 herbicidal effect (growth inhibition grade)” value was 5 (Growth inhibition effect is equal to or greater than 90%, or complete withering is achieved).
For `O=S(=O)(Cc1ccccc1OC(F)F)c1ncc(Cl)s1` [Compound 1C-38], in the assay with Monochoria vaginalis, the “MONVA #1 herbicidal effect (growth inhibition grade)” value is listed as 5 (Growth inhibition effect is equal to or greater than 90%, or complete withering is achieved). In assay [1], the inhibition at 200 g/ha was at least 90% and the “ECHDG (2-2.5L) #2 herbicidal effect (growth inhibition grade)” value is listed as 5 (Growth inhibition effect is equal to or greater than 90%, or complete withering is achieved). Besides, the “SCIJU #1 herbicidal effect (growth inhibition grade)” value in the assay with Scirpus juncoides is 5 (Growth inhibition effect is equal to or greater than 90%, or complete withering is achieved). Also, in assay [2], the “ECHDG #1 herbicidal effect (growth inhibition grade)” value is recorded as 5 (Growth inhibition effect is equal to or greater than 90%, or complete withering is achieved). Also, the inhibition at 2000 g/ha in the assay on Digitaria ciliaris was at least 90%. Further, the “CYMIC #1 herbicidal effect (growth inhibition grade)” value in the assay on Cyperus microiria was 5 (Growth inhibition effect is equal to or greater than 90%, or complete withering is achieved).
As to `O=S(=O)(Cc1c(F)cccc1OC(F)F)c1ncc(Cl)s1` [Compound 1C-41, 5-chloro-2-{[2-(difluoromethoxy)-6-fluorophenyl][methanesulfonyl]}-1,3-thiazole], the “MONVA #1 herbicidal effect (growth inhibition grade)” value in the assay with Monochoria vaginalis was 5 (Growth inhibition effect is equal to or greater than 90%, or complete withering is achieved). Besides, in assay [1], the inhibition at 200 g/ha was at least 90% and the “ECHDG (2-2.5L) #2 herbicidal effect (growth inhibition grade)” value is given as 5 (Growth inhibition effect is equal to or greater than 90%, or complete withering is achieved). Moreover, the “SCIJU #1 herbicidal effect (growth inhibition grade)” value with Scirpus juncoides is 5 (Growth inhibition effect is equal to or greater than 90%, or complete withering is achieved). Besides, the “ECHDG #1 herbicidal effect (growth inhibition grade)” value in assay [2] is given as 5 (Growth inhibition effect is equal to or greater than 90%, or complete withering is achieved). In addition, the inhibition at 2000 g/ha in the assay with Digitaria ciliaris was at least 90%.
For `CCOc1cc(F)c(CS(=O)(=O)c2ncc(Cl)s2)cc1F` [Compound 1C-101, 5-chloro-2-[(2,5-difluoro-4-ethoxyphenyl)(methanesulfonyl)]-1,3-thiazole], the “MONVA #1 herbicidal effect (growth inhibition grade)” value in the assay on Monochoria vaginalis was 5 (Growth inhibition effect is equal to or greater than 90%, or complete withering is achieved). Also, the “ECHDG (2-2.5L) #2 herbicidal effect (growth inhibition grade)” value in assay [1] was 5 (Growth inhibition effect is equal to or greater than 90%, or complete withering is achieved). Besides, in the assay with Scirpus juncoides, the “SCIJU #1 herbicidal effect (growth inhibition grade)” value is given as 5 (Growth inhibition effect is equal to or greater than 90%, or complete withering is achieved). In addition, the “ECHDG #1 herbicidal effect (growth inhibition grade)” value in assay [2] is listed as 5 (Growth inhibition effect is equal to or greater than 90%, or complete withering is achieved). Moreover, in the assay with Digitaria ciliaris, the inhibition at 2000 g/ha was at least 50%. The “CYMIC #1 herbicidal effect (growth inhibition grade)” value in the assay on Cyperus microiria is given as 5 (Growth inhibition effect is equal to or greater than 90%, or complete withering is achieved).
